Holding throughout (type): cell-based
Assay [1] concerns the target Transient receptor potential cation channel subfamily A member 1 (Rattus norvegicus) (UniProt Q6RI86). Briefly: Agonist activity at rat recombinant TRPA1 expressed in HEK293 cells assessed as Ca2+ influx by Fluo-4 dye based assay relative to 100 uM AITC.
The target of assay [2] is T1, Transient receptor potential cation channel subfamily V member 1 (Homo sapiens, UniProt Q8NER1). In words: Agonist activity at human recombinant TRPV1 expressed in HEK293 cells assessed as Ca2+ influx by Fluo-4 dye based assay.
T1 sequence (Q8NER1 whole entry): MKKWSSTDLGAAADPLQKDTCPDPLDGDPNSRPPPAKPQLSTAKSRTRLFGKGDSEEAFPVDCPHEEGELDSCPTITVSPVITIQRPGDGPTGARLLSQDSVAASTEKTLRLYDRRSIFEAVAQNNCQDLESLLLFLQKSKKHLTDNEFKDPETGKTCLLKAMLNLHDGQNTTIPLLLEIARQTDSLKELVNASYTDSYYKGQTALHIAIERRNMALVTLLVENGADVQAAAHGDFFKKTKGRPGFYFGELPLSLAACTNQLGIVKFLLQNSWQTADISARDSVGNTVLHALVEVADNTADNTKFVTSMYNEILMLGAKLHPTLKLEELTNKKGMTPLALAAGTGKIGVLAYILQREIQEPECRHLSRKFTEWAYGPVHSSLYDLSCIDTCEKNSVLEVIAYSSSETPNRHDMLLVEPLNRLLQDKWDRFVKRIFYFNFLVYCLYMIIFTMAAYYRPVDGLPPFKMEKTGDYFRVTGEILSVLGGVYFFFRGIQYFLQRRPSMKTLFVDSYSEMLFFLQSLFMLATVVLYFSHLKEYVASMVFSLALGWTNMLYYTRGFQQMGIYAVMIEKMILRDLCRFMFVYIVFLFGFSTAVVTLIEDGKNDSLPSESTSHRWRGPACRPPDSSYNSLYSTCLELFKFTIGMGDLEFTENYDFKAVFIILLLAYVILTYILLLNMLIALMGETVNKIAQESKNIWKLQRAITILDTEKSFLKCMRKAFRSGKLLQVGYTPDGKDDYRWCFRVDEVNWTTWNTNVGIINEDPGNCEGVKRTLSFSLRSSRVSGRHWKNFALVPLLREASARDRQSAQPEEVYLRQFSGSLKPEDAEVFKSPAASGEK
The target of assay [3] is T2, Transient receptor potential cation channel subfamily A member 1 (Rattus norvegicus, UniProt Q6RI86). In words: Agonist activity at rat recombinant TRPA1 expressed in HEK293 cells assessed as Ca2+ influx by Fluo-4 dye based assay.
T2 sequence (Q6RI86 whole entry): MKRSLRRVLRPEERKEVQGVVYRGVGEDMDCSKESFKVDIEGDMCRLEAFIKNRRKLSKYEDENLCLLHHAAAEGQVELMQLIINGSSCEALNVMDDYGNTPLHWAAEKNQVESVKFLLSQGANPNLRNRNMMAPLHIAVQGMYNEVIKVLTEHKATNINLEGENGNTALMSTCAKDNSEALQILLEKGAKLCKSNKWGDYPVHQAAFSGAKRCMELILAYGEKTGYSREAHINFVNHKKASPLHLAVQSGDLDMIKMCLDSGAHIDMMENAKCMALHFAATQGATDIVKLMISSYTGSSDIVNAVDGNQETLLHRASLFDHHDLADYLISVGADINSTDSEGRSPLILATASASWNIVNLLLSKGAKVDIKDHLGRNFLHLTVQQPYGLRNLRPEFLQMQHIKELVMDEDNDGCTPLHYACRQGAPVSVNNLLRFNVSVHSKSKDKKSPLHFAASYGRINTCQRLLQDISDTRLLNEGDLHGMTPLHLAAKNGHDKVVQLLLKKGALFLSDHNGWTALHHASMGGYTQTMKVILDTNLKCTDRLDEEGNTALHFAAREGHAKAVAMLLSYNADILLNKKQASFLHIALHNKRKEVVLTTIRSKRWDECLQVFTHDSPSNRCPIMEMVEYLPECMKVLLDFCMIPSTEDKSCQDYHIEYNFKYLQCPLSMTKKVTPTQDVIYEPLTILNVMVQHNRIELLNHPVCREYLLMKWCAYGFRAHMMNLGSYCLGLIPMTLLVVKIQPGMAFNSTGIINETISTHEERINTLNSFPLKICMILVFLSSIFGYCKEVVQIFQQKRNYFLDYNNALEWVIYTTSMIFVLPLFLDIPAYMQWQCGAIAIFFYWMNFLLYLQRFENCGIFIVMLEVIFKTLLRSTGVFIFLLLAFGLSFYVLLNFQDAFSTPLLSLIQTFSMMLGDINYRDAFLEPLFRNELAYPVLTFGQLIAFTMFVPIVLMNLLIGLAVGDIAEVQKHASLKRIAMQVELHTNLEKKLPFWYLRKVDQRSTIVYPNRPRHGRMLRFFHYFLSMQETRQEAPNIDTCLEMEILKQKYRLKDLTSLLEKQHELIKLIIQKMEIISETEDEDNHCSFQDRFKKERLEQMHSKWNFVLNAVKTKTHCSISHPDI
Assay [4] addresses T1, Transient receptor potential cation channel subfamily V member 1. Briefly: Antagonist activity against human recombinant TRPV1 expressed in HEK293 cells assessed as inhibition of capsaicin-induced Ca2+ influx pre-treated 5 mins before capsaicin addition by Fluo-4 dye based assay.
Assay [5] shares this target. In words: Agonist activity at human recombinant TRPV1 expressed in HEK293 cells assessed as Ca2+ influx by Fluo-4 dye based assay relative to 4 uM ionomycin.
Assay [6] has as its target T2, Transient receptor potential cation channel subfamily A member 1. In words: Antagonist activity against rat recombinant TRPA1 expressed in HEK293 cells assessed as inhibition of AITC-induced Ca2+ influx pre-treated 5 mins before capsaicin addition by Fluo-4 dye based assay.

In ChEMBL document CHEMBL3396955, “Discovery of non-electrophilic capsaicinoid-type TRPA1 ligands” (Bioorg Med Chem Lett, 2015) one finds Efficacy, EC50 and IC50 data, which are given here for six molecules.

Sequence of Transient receptor potential cation channel subfamily A member 1 (Rattus norvegicus) (Q6RI86 whole entry): as above

Usually EC50 stands for the midpoint of the concentration-response curve. For orientation: IC50 means the concentration that gives 50% inhibition. Take `CCCCCCCCCn1nnc(-c2ccc(O)c(OC)c2)n1`: the Efficacy in assay [1] was determined as 65.9%; in assay [5], 28.5%. Further, the EC50 in assay [2] (read-out: EC50) was found to be 6.9 µM; in assay [3] (read-out: EC50), 1.41 µM. In addition, the IC50 was determined as 36 µM in assay [4] and 1.71 µM in assay [6].
In the case of `COc1cc(CNC(=O)CCCC/C=C/C(C)C)ccc1O` [CAPSAICIN], in assay [3] (hek293), the EC50 entry is “Not Active”.
Consider `CCCCCCCC/C=C\CCCCCCCCn1nnc(-c2ccc(O)c(OC)c2)n1`, for which the Efficacy in assay [1] was 83.1%; in assay [5] it was 24.2%. The EC50 in assay [2] (read-out: EC50) was 5.5 µM; in assay [3] (read-out: EC50), 0.83 µM. Also, the IC50 in assay [4] was > 100 µM; in assay [6] it was 1 µM.
In the case of `CCCCCC[C@@H](O)C/C=C\CCCCCCCCn1nnc(-c2ccc(O)c(OC)c2)n1`, the Efficacy in assay [1] amounted to 62.6%; in assay [5], 21%. Moreover, the results for the EC50 in assay [2] (read-out: EC50) and in assay [3] (read-out: EC50) were 37.5 µM and 36.7 µM, respectively. The concentration for half-maximal inhibition (IC50) in assay [4] was found to be 57.5 µM; in assay [6] it was 11.2 µM.
For the molecule `CCCCCC[C@H](C/C=C\CCCCCCCCn1nnc(-c2ccc(O)c(OC)c2)n1)OC(=O)Cc1ccccc1`, the Efficacy in assay [1] was 72.6%; in assay [5], < 10%. For the same molecule, the results for the EC50 result in assay [2] (hek293) and in assay [3] (read-out: EC50) were “Not Active” and 0.81 µM, respectively. In addition, the half-inhibitory concentration (IC50) was > 100 µM in assay [4] and 2.9 µM in assay [6].
For the molecule `C=CCN=C=S`, the Efficacy in assay [1] was determined as 38.9%.
